Assay results as given in US8232271B2 (priority 2008, dated 2012).

Assays:
[1] = biological target: T1, HCV polymerase (NS5B570n-Con1) (Hepatitis C virus genotype 1b, UniProt Q9WMX2); assay: HCV NS5B RNA polymerase activity assay; assay type: biochemical, HCV Con1 strain
T1 construct: contains a 21 amino acid deletion at the C-terminus relative to the full-length HCV polymerase; 6-histidine (N); made in house; host or cells: E. coli BL21(DE) pLysS, plasmid pET17b
Experimental: The enzymatic activity of HCV polymerase (NS5B570n-Con1) was measured as the incorporation of radiolabeled nucleotide monophosphates into acid insoluble RNA products. Unincorporated radiolabeled substrate was removed by filtration and scintillant was added to the washed and dried filter plate containing radiolabeled RNA product. The amount of RNA product generated by NS5B570-Con1 at the end of the reaction was directly proportional to the amount of light emitted by the scintillant.
The N-terminal 6-histidine tagged HCV polymerase, derived from HCV Con1 strain, genotype 1b (NS5B570n-Con1) contains a 21 amino acid deletion at the C-terminus relative to the full-length HCV polymerase and was purified from E. coli strain BL21(DE) pLysS. The construct, containing the coding sequence of HCV NS5B Con1 (GenBank accession number AJ242654) was inserted into the plasmid construct pET17b, downstream of a T7 promoter expression cassette and transformed into E. coli. A single colony was grown overnight as a starter culture and later used inoculate 10 L of LB media supplemented with 100 μg/mL ampicillin at 37° C. Protein expression was induced by the addition of 0.25 mM isopropyl-β-D-thiogalactopyranoside (IPTG) when optical density at […] of the culture was between 0.6 and 0.8 and cells were harvested after 16 to 18 h at 30° C. NS5B570n-Con1 was purified to homogeneity using a three-step protocol including subsequent column chromatography on Ni-NTA, SP-Sepharose HP and Superdex 75 resins.
Each 50 μl enzymatic reaction contained 20 nM RNA template derived from the complementary sequence of the Internal Ribosome Entry Site (cIRES), 20 nM NS5B570n-Con1 enzyme, 0.5 μCi of tritiated UTP (Perkin Elmer catalog no. TRK-412; specific activity: 30 to 60 Ci/mmol; stock solution concentration from 7.5×10^-5 M to 20.6×10^-6 M), 1 μM each ATP, CTP, and GTP, 40 mM Tris-HCl pH 8.0, 40 mM NaCl, 4 mM DTT (dithiothreitol), 4 mM MgCl2, and 5 μl of compound serial diluted in DMSO. Reaction mixtures were assembled in 96-well filter plates (cat #MADVN0B, Millipore Co.) and incubated for 2 h at 30° C. Reactions were stopped by addition of 10% final (v/v) trichloroacetic acid and incubated for 40 min at 4° C. Reactions were filtered, washed with 8 reaction volumes of 10% (v/v) trichloroacetic acetic acid, 4 reaction volumes of 70% (v/v) ethanol, air dried, and 25 μl of scintillant (Microscint 20, Perkin-Elmer) was added to each reaction well.
The amount of light emitted from the scintillant was converted to counts per minute (CPM) on a Topcount® plate reader (Perkin-Elmer, Energy Range: Low, Efficiency Mode: Normal, Count Time: 1 min, Background Subtract: none, Cross talk reduction: Off).
Data was analyzed in Excel® (Microsoft®) and ActivityBase® (Idbs®). The reaction in the absence of enzyme was used to determine the background signal, which was subtracted from the enzymatic reactions. Positive control reactions were performed in the absence of compound, from which the background corrected activity was set as 100% polymerase activity. All data was expressed as a percentage of the positive control. The compound concentration at which the enzyme-catalyzed rate of RNA synthesis was reduced by 50% (IC50) was calculated by fitting
[formula] equation (i) to the data. where “Y” corresponds to the relative enzyme activity (in %), “% Min” is the residual relative activity at saturating compound concentration, “% Max” is the relative maximum enzymatic activity, “X” corresponds to the compound concentration, and “S” is the Hill coefficient (or slope).

Structure (SMILES)	melting point [°C]	IC50 [1] [µM]
COc1cc(CN(CC2CCNC2)S(C)(=O)=O)c(-c2ccc[nH]c2=O)cc1C(C)(C)C (stereo not shown) [Compound I-31, N-[4-tert-Butyl-5-methoxy-2-(2-oxo-1,2-dihydro-pyridin-3-yl)-benzyl]-N-pyrrolidin-3-ylmethyl-methanesulfonamide]	158 to 160	0.097
COc1cc(CN2C(=O)c3ccccc3C2=O)c(-c2ccc[nH]c2=O)cc1C(C)(C)C [Compound I-33, 2-[4-tert-Butyl-5-methoxy-2-(2-oxo-1,2-dihydro-pyridin-3-yl)-benzyl]-isoindole-1,3-dione]	277 to 280	0.035
COc1cc(CN(CCO)S(C)(=O)=O)c(-c2ccc[nH]c2=O)cc1C(C)(C)C [Compound I-35, N-[4-tert-butyl-5-methoxy-2-(2-oxo-1,2-dihydro-pyridin-3-yl)-benzyl]-N-(2-hydroxy-ethyl)-methanesulfonamide]	234.7 to 236	0.026
COc1cc(CNS(C)(=O)=O)c(-c2ccc(C)[nH]c2=O)cc1C(C)(C)C [Compound I-37, N-[4-tert-Butyl-5-methoxy-2-(6-methyl-2-oxo-1,2-dihydro-pyridin-3-yl)-benzyl]-methanesulfonamide]	120 to 125	0.146
CCC1(CC)C(=O)C=CN(Cc2cc(OC)c(C(C)(C)C)cc2-c2ccc[nH]c2=O)C1=O [Compound I-39]	282 to 284	0.159
COc1cc(C(=O)N2CCOCC2)c(-c2ccc[nH]c2=O)cc1C(C)(C)C [Compound I-40]	208 to 210	0.533
COc1cc(C(=O)N(C)C)c(-c2ccc[nH]c2=O)cc1C(C)(C)C [Compound I-41]	208 to 210	1.68
COc1cc(CNC(=O)c2ccc(N)cc2)c(-c2ccc[nH]c2=O)cc1C(C)(C)C [Compound I-42, 4-Amino-N-[4-tert-butyl-5-methoxy-2-(2-oxo-1,2-dihydro-pyridin-3-yl)-benzyl]-benzamide]	165 to 167	0.036
COc1cc(CNC(=O)c2ccc(NS(C)(=O)=O)cc2)c(-c2ccc[nH]c2=O)cc1C(C)(C)C [Compound I-43, N-[4-tert-butyl-5-methoxy-2-(2-oxo-1,2-dihydro-pyridin-3-yl)-benzyl]-4-methanesulfonylamino-benzamide]	175 to 180	0.05
COc1cc(C(=O)N2CCN(C(C)=O)CC2)c(-c2ccc[nH]c2=O)cc1C(C)(C)C [Compound I-46]	206 to 208	0.615
COCCN(C)C(=O)c1cc(OC)c(C(C)(C)C)cc1-c1ccc[nH]c1=O [Compound I-47]	160 to 162	1.51
COc1cc(CN(CC2CCN(C(C)=O)C2)S(C)(=O)=O)c(-c2ccc[nH]c2=O)cc1C(C)(C)C (stereo not shown) [Compound I-48, N-(1-acetyl-pyrrolidin-3-ylmethyl)-N-[4-tert-butyl-5-methoxy-2-(2-oxo-1,2-dihydro-pyridin-3-yl)-benzyl]-methanesulfonamide]	196 to 198	0.084
COc1cc(C(=O)N2CCS(=O)(=O)CC2)c(-c2ccc[nH]c2=O)cc1C(C)(C)C [Compound I-51]	252 to 254	0.552
COc1cc(C(C)NS(C)(=O)=O)c(-c2ccc[nH]c2=O)cc1C(C)(C)C (stereo not shown) [Compound I-52, N-{1-[4-tert-butyl-5-methoxy-2-(2-oxo-1,2-dihydro-pyridin-3-yl)-phenyl]-ethyl}-methanesulfonamide]	284 to 286	0.654
COc1cc(C(C)N(C)S(C)(=O)=O)c(-c2ccc[nH]c2=O)cc1C(C)(C)C (stereo not shown) [Compound I-53, N-{1-[4-tert-Butyl-5-methoxy-2-(2-oxo-1,2-dihydro-pyridin-3-yl)-phenyl]-ethyl}-N-methyl-methanesulfonamide]	205 to 207	0.187
CCOC(=O)c1cc(OC)c(C(C)(C)C)cc1-c1ccc[nH]c1=O [Compound I-54, 4-tert-Butyl-5-methoxy-2-(2-oxo-1,2-dihydro-pyridin-3-yl)-benzoic acid ethyl ester]	214 to 215	0.039
COc1cc(C(=O)N2CCC(C#N)CC2)c(-c2ccc[nH]c2=O)cc1C(C)(C)C [Compound I-56, 1-[4-tert-Butyl-5-methoxy-2-(2-oxo-1,2-dihydro-pyridin-3-yl)-benzoyl]-piperidine-4-carbonitrite]	213 to 215	0.432
COc1cc(CN(C2CCNCC2)S(C)(=O)=O)c(-c2ccc[nH]c2=O)cc1C(C)(C)C [Compound I-57]	205 to 208	0.057
COc1cc(C(=O)N(C)Cc2ccncc2)c(-c2ccc[nH]c2=O)cc1C(C)(C)C [Compound I-58]	199 to 201	1.14
COc1cc(CN2CCNS2(=O)=O)c(-c2ccc[nH]c2=O)cc1C(C)(C)C [Compound I-60, 3-[5-tert-Butyl-2-(1,1-dioxo-1λ^6-[1,2,5]thiadiazolidin-2-ylmethyl)-4-methoxy-phenyl]-1H-pyridin-2-on]	230 to 231	0.023
COc1cc(CN2CCN(C(=O)OC(C)(C)C)S2(=O)=O)c(-c2ccc[nH]c2=O)cc1C(C)(C)C [Compound I-61]	125 to 127	0.319
COc1cc(C(=O)N2CCC(F)(F)CC2)c(-c2ccc[nH]c2=O)cc1C(C)(C)C [Compound I-62]	223 to 224	0.955
COc1cc(CN2CCN(C)S2(=O)=O)c(-c2ccc[nH]c2=O)cc1C(C)(C)C [Compound I-64, 3-[5-tert-Butyl-4-methoxy-2-(5-methyl-1,1-dioxo-1λ^6-[1,2,5]thiadiazolidin-2-ylmethyl)-phenyl]-1H-pyridin-2-one]	253 to 255	0.06
COc1cc(CN(C)C(=O)c2cccc(NS(C)(=O)=O)c2)c(-c2ccc[nH]c2=O)cc1C(C)(C)C [Compound I-65, N-[4-tert-Butyl-5-methoxy-2-(2-oxo-1,2-dihydro-pyridin-3-yl)-benzyl]-3-methanesulfonylamino-N-methyl-benzamide]	170 to 172	0.013
COc1cc(C(=O)N(C)CC#N)c(-c2ccc[nH]c2=O)cc1C(C)(C)C [Compound I-66]	211 to 212	0.152
COCCN1CCN(C(=O)c2cc(OC)c(C(C)(C)C)cc2-c2ccc[nH]c2=O)CC1 [Compound I-67]	179 to 181	3.69
COc1cc(C(=O)N2CC(O)C2)c(-c2ccc[nH]c2=O)cc1C(C)(C)C [Compound I-68]	236 to 238	0.211
COc1cc(Cn2c(=O)n(C)c3ccccc32)c(-c2ccc[nH]c2=O)cc1C(C)(C)C [Compound I-69, 1-[4-tert-Butyl-5-methoxy-2-(2-oxo-1,2-dihydro-pyridin-3-yl)-benzyl]-3-methyl-1,3-dihydro-benzoimidazol-2-one]	140 to 142	0.034
CCOC(=O)[C@H]1CCC(=O)N1Cc1cc(OC)c(C(C)(C)C)cc1-c1ccc[nH]c1=O [Compound I-70, (R)-1-[4-tert-Butyl-5-methoxy-2-(2-oxo-1,2-dihydro-pyridin-3-yl)-benzyl]-5-oxo-pyrrolidine-2-carboxylic acid ethyl ester]	92 to 95	0.07
